One test deals with T1, Chondroitinase ABC (Proteus vulgaris, UniProt P59807).
T1 sequence (P59807 25-1021): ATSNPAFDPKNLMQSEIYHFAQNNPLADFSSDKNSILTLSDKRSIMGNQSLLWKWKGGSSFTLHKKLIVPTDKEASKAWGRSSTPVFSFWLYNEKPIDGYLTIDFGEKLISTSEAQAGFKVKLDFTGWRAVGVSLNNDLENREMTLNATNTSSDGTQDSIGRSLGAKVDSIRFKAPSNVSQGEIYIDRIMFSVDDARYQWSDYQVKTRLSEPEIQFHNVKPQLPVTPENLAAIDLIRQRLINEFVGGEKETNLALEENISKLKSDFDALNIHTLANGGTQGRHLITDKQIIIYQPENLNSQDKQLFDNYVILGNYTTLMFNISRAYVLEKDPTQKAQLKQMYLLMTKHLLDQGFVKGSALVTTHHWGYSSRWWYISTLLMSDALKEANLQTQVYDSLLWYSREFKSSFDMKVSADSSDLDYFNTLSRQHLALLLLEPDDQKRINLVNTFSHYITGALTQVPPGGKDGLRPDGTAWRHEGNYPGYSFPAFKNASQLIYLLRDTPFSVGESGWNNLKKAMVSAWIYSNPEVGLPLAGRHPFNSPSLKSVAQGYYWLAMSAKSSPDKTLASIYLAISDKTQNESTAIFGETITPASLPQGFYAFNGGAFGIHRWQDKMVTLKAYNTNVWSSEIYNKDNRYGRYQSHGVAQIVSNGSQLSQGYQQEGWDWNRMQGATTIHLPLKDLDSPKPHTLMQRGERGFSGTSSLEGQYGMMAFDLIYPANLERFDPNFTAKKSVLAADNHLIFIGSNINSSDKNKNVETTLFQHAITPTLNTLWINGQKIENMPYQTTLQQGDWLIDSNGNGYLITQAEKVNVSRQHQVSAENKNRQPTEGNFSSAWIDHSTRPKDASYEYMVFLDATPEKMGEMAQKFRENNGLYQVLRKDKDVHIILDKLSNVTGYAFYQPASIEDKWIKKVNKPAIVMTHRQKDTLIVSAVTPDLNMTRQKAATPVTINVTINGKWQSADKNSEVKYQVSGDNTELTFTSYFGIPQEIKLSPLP
The test is described as follows: Fluorescence response to biological species: chondroitinase. It counts as biochemical. Particulars: 5 μM; chondroitinase 5 μg (50 μg also tested); 4 h, 37° C. The method, then: 5 μM compound 1 (HADP) was incubated with various biological species at the indicated amount/concentration in 96-well microplate. Cysteine (5 mM), Glutathione (5 mM), H2O2 (100 μM), Esterase, Chondroitinase ABC, Hyaluronidase, Lysozyme, β-Glucuronidase, β-Glucosidase (5 μg each) and heparanase (2 μg). For Chondroitinase ABC and Hyaluronidase, 50 μg was also tested. Each sample was performed in triplicates. Then the microplate was sealed with sealing film and incubated at 37° C. for 4 hours. Fluorescence intensity was recorded on Spectramax M5 Multimode plate reader (Molecular Devices, USA). λex/em=365 nm/455 nm.

The target of the next test is T2, heparanase (Homo sapiens, UniProt Q9Y251).
T2 sequence (Q9Y251 36-543): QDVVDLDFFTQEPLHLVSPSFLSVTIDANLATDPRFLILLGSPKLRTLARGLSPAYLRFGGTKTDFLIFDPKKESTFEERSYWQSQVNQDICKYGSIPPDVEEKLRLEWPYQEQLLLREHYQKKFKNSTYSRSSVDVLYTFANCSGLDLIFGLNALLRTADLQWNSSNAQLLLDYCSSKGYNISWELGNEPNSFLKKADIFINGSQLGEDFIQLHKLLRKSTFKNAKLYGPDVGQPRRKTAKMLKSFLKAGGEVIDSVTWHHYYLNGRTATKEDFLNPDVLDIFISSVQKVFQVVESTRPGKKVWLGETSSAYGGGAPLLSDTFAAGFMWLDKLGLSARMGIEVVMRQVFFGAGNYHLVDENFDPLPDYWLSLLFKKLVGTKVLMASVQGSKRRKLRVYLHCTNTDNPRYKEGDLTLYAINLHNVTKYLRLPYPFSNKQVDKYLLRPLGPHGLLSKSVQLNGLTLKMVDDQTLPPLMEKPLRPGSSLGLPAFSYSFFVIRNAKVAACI
The experiment in a line: Kinetics and detection limit of heparanase by Compound 1 (HADP). Format: biochemical. As for the experimental part:
To a solution of 20 μL, of 50 μM HADP (compound 1) and 160 μL 40 mM NaOAc buffer (pH 5.0) buffers was added 20 μL, heparanase with various concentrations (0-0.1 μg/μL) in 96-well microplate. Then final concentration of heparanase is from 0-0.01 μg/μL. Each concentration was performed in triplicates. Then the fluorescence intensity was recorded on Spectramax M5 Multimode plate reader (Molecular Devices, USA) at each timepoint. λex/em=365 nm/455 nm.
To calculate the detection limit, plot the fluorescence intensity against heparanase concentration and fit a line with linear regression. The detection limit was estimated with the following formula. LOD=3 σ/s, where σ represents standard deviation of fluorescent intensity of blank sample, s is the calculated slope of linear regression equation.
To determine the detection limit of Compound 1 (HADP) probe for heparanse, concentration-dependent studies with various concentrations of heparanse over time were performed with 5 μM 1 (HADP). The concentration increases of heparanse led to higher fluorescent intensities at the same time point due to the expedited cleavage of glyosidic bond, releasing more fluorophores. A good linear relationship was obtained in the heparanse concentration range of 0-0.01 μgμl-1 with an equation of F455 nm=650443[HPA]+12.03 (R^2=0.9968). Based on 3σ/s method, the limit of detection (LOD) of Compound 1 for heparanse was calculated to be 0.35 ng/mL (67 pM), indicating the ultra-sensitivity of Compound 1 (HADP) to detect heparanase activity. The kinetic parameters for the enzymatic cleavage of Compound 1 (HADP) were determined via time-dependent fluorescence intensity in the presence of heparanase and probe 1 (HADP) at different concentration.

Values joined by “and” are separate entries in the source; they are usually repeats but may differ in a detail not shown here. Identical values can stand only once.

On to `Cc1cc(=O)oc2c(F)c(O[C@@H]3O[C@H](C(=O)O)[C@@H](O[C@H]4O[C@H](CO)[C@@H](O)[C@H](O)[C@H]4NS(=O)(=O)O)[C@H](O)[C@H]3O)c(F)cc12` [Compound 1], for which the fluorescence change entry on Chondroitinase ABC is recorded as “did not afford obvious fluorescence change”. The “limit of detection (LOD) for heparanase” value at heparanase (5 μM probe, 3σ/s method) was 0.35 ng/mL and 67 pM. In addition, the “turnover number (kcat)” value on heparanase (enzymatic cleavage by heparanase) came out at 0.04 s⁻¹. Further, the Km – broadly, the substrate concentration at which the rate is half of its maximum – at heparanase (enzymatic cleavage by heparanase, read-out: Michaelis constant (Km)) was determined as 8.3 µM.

The values are drawn from patent US20220202964A1, “HEPARANASE COMPOUNDS AND METHODS OF USE” (University of Florida Research Foundation, Incorporated, priority 2019, published 2022).
